Assay results from ChEMBL document CHEMBL1909046, “DrugMatrix in vitro pharmacology data”.
Where a SMILES comes first, the peptide text is derived from it. Bridges are numbered along the chain shown (N, C = ends). [ ]: non-standard residue; d: D form. The star is where a group is joined. Threoninol(2S,3R) = C[C@@H](O)[C@H](CO)N*

How the values were obtained:
[1] = DRUGMATRIX: Leukotriene, BLT (LTB4) radioligand binding (ligand: [3H]LTB4); type: cell membranes, Membrane; conditions: u-937; Not Active = under 50% inhibition at 10 µM
Cytochrome P450 3A4 = Cytochrome P450 3A4 (Homo sapiens, UniProt P08684); conditions: bti-tn-5b1-4; further: in other assays of this panel Not Active means under 50% inhibition at 10 µM
[2] = DRUGMATRIX: Nicotinic Acetylcholine radioligand binding (ligand: [125I] Epibatidine); type: cell membranes, Membrane; conditions: imr-32; Not Active = under 50% inhibition at 10 µM
[3] = target: 5-hydroxytryptamine receptor 4 (Cavia porcellus, UniProt O70528); type: cell membranes, Dunkin-Hartley, Striatum, Membrane; further: in other assays of this panel Not Active means under 50% inhibition at 10 µM
[4] = target: T1, Polyunsaturated fatty acid lipoxygenase ALOX15 (Oryctolagus cuniculus, UniProt P12530); assay: biochemical; type: tissue-based, Reticulocytes; conditions: reticulocytes;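 further: inhibition of 15-lipoxygenase enzyme activity measured with linoleic acid as the substrate; in other assays of this panel Not Active means under 50% inhibition at 10 µM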
T1 sequence (P12530 whole entry): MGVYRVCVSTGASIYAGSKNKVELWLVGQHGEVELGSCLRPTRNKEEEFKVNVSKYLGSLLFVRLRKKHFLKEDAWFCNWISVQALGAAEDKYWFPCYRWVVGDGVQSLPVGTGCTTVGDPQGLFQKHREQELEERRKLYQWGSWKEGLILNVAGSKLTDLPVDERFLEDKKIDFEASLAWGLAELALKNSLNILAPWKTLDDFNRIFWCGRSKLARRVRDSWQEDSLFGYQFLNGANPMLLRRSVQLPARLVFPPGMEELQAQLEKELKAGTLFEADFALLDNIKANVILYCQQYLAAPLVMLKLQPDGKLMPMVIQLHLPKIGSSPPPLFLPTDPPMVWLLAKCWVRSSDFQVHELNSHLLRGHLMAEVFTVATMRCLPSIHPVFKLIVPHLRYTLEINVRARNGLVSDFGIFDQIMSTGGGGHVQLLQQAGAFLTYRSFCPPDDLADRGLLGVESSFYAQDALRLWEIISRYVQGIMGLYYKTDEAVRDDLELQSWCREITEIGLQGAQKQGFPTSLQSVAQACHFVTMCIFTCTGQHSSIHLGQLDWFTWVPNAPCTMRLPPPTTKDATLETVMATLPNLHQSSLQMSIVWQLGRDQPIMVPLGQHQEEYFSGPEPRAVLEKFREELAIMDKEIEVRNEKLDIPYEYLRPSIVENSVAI

Mu-type opioid receptor = Mu-type opioid receptor (Homo sapiens, UniProt P35372); assay: DRUGMATRIX: Opiate mu (OP3, MOP) radioligand binding (ligand: [3H] Diprenorphine); type: cell membranes, CHO-K1, Membrane; conditions: Not Active = under 50% inhibition at 10 µM
[5] = target: Mitogen-activated protein kinase 14 (Homo sapiens, UniProt Q16539); design: species or system Escherichia coli;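 further: inhibition of p38alpha enzyme activity in a biochemical kinase assay, with myelin basic protein serving as substrate; in other assays of this panel Not Active means under 50% inhibition at 10 µM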
Mitogen-activated protein kinase 14, sequence (Q16539 whole entry): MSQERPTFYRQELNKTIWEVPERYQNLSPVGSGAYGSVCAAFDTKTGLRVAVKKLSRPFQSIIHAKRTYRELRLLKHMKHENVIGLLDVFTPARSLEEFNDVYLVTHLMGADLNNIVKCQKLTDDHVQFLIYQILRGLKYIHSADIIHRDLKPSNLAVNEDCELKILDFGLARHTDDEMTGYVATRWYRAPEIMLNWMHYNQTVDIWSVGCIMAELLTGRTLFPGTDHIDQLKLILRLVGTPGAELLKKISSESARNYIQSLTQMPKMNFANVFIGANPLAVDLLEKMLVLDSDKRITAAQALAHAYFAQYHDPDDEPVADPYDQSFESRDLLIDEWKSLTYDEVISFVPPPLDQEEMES

5-hydroxytryptamine receptor 4, sequence (O70528 whole entry): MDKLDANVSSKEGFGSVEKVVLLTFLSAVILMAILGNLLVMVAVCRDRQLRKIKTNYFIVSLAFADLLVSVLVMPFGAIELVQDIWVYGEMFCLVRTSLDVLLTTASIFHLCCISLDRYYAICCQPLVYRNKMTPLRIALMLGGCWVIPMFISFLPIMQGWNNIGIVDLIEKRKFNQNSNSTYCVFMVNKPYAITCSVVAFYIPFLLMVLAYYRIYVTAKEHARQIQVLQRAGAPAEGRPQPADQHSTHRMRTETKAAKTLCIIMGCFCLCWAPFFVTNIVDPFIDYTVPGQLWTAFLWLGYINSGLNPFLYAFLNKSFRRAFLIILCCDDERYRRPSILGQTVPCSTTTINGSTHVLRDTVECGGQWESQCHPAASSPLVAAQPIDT
Mu-type opioid receptor, sequence (P35372 whole entry): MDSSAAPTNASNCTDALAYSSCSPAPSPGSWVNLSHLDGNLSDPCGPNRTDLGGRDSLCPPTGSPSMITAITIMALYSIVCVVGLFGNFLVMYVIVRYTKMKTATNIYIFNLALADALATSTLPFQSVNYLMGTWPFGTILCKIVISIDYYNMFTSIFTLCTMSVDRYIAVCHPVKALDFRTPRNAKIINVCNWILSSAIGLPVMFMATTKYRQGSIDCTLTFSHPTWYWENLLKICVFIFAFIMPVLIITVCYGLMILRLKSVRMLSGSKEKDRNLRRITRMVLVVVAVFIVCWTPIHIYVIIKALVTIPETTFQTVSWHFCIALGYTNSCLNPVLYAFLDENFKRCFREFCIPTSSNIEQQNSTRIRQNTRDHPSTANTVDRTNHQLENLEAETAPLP
Cytochrome P450 3A4, sequence (P08684 whole entry): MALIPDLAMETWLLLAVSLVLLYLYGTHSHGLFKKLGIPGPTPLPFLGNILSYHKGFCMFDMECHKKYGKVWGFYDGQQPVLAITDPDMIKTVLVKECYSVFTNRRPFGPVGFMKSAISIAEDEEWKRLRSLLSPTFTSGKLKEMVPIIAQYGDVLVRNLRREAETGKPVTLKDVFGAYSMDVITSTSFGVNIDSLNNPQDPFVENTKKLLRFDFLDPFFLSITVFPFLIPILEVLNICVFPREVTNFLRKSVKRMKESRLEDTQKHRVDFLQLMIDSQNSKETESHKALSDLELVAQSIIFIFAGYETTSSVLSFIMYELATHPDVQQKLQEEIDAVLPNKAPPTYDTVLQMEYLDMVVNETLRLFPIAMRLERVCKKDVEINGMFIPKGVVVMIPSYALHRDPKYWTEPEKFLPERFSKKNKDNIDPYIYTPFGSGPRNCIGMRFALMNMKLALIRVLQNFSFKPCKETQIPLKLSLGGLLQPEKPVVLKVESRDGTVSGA

Molecule | IC50 [1] | Ki [1] | IC50 (Cytochrome P450 3A4) | Ki (Cytochrome P450 3A4) | IC50 [2] | Ki [2] | IC50 [3] | IC50 [4] | IC50 (Mu-type opioid receptor; cho-k1) | IC50 ([5]; read-out: IC50) | IC50 [5] | IC50 (Mu-type opioid receptor; read-out: IC50) | Ki (Mu-type opioid receptor; read-out: Ki) | Ki [5] | Ki [3] | Ki [4]
COc1ccccc1C(=O)N1CCC(Cc2ccccc2)CC1 | Not Active | Not Active | Not Active | Not Active | Not Active | Not Active | Not Active | Not Active | Not Active | – | – | – | – | – | – | –
Cc1ccccc1C(=O)N1CCC(Cc2ccccc2)CC1 | Not Active | Not Active | Not Active | Not Active | Not Active | Not Active | Not Active | Not Active | Not Active | 329 nM | – | – | – | – | – | –
O=C1CC[C@H](N2C(=O)c3ccccc3C2=O)C(=O)N1 | Not Active | Not Active | Not Active | Not Active | Not Active | Not Active | Not Active | Not Active | Not Active | – | Not Active | – | – | – | – | –
N=C(Nc1ccccc1)Nc1ccccc1 | Not Active | Not Active | Not Active | Not Active | Not Active | Not Active | Not Active | Not Active | Not Active | – | Not Active | – | – | – | – | –
C[C@@H](O)[C@H](CO)NC(=O)[C@@H]1CSSC[C@H](NC(=O)[C@H](N)Cc2ccccc2)C(=O)N[C@@H](Cc2ccccc2)C(=O)N[C@H](Cc2c[nH]c3ccccc23)C(=O)N[C@@H](CCCCN)C(=O)N[C@@H]([C@@H](C)O)C(=O)N1 (H-[dF]CF[dW]KTC-{Threoninol(2S,3R)}; disulfide 2-7) | Not Active | Not Active | Not Active | Not Active | Not Active | Not Active | Not Active | Not Active | Not Active | – | Not Active | – | – | – | – | –
S=C=Nc1cccc2ccccc12 [1-NAPHTHYLISOTHIOCYANATE] | Not Active | Not Active | Not Active | Not Active | Not Active | Not Active | Not Active | Not Active | – | – | Not Active | – | – | – | – | –
O=C1CC2(CCCC2)CC(=O)N1CCCCN1CCN(c2ncccn2)CC1 [BUSPIRONE] | Not Active | Not Active | – | – | Not Active | Not Active | Not Active | Not Active | Not Active | – | Not Active | – | – | – | – | –
C[C@@]12C(=O)OC(=O)[C@]1(C)[C@H]1CC[C@@H]2O1 [CANTHARIDIN] | Not Active | Not Active | Not Active | Not Active | Not Active | Not Active | Not Active | Not Active | – | – | Not Active | – | – | – | – | –
O=NN(CCCl)C(=O)NCCCl [CARMUSTINE] | Not Active | Not Active | – | – | Not Active | Not Active | Not Active | Not Active | Not Active | – | Not Active | – | – | – | – | –
CC1=C(C(=O)O)N2C(=O)[C@@H](NC(=O)[C@H](N)c3ccccc3)[C@H]2SC1 [CEPHALEXIN ANHYDROUS] | Not Active | Not Active | – | – | Not Active | Not Active | Not Active | Not Active | Not Active | – | Not Active | – | – | – | – | –
O=C(N[C@H](CO)[C@H](O)c1ccc([N+](=O)[O-])cc1)C(Cl)Cl [CHLORAMPHENICOL] | Not Active | Not Active | – | – | Not Active | Not Active | Not Active | Not Active | Not Active | – | Not Active | – | – | – | – | –
CCOC(=O)C(C)(C)Oc1ccc(Cl)cc1 [CLOFIBRATE] | Not Active | Not Active | – | – | Not Active | Not Active | Not Active | Not Active | Not Active | – | Not Active | – | – | – | – | –
C[C@@H]1C[C@@H]([C@H](O)CC2CC(=O)NC(=O)C2)C(=O)[C@@H](C)C1 [CYCLOHEXIMIDE] | Not Active | Not Active | – | – | Not Active | Not Active | Not Active | Not Active | – | – | Not Active | – | – | – | – | –
C/C=C/C[C@@H](C)[C@@H](O)[C@H]1C(=O)N[C@@H](CC)C(=O)N(C)CC(=O)N(C)[C@@H](CC(C)C)C(=O)N[C@@H](C(C)C)C(=O)N(C)[C@@H](CC(C)C)C(=O)N[C@@H](C)C(=O)N[C@H](C)C(=O)N(C)[C@@H](CC(C)C)C(=O)N(C)[C@@H](CC(C)C)C(=O)N(C)[C@@H](C(C)C)C(=O)N1C [CYCLOSPORINE] | Not Active | Not Active | – | – | Not Active | Not Active | Not Active | Not Active | Not Active | – | Not Active | – | – | – | – | –
COP(=O)(OC)OC=C(Cl)Cl [DICHLORVOS] | Not Active | Not Active | Not Active | Not Active | Not Active | Not Active | Not Active | Not Active | – | – | Not Active | – | – | – | – | –
CN(C)c1ccc(C(=C2C=CC(=[N+](C)C)C=C2)c2ccc(N(C)C)cc2)cc1.[Cl-] [GENTIAN VIOLET] | Not Active | Not Active | – | – | Not Active | Not Active | Not Active | Not Active | – | – | Not Active | 2150 nM | 871 nM | – | – | –
NC(=O)NO [HYDROXYUREA] | Not Active | Not Active | – | – | Not Active | Not Active | Not Active | Not Active | Not Active | – | Not Active | – | – | – | – | –
CC(C)(C(=O)c1cccnc1)c1cccnc1 [METYRAPONE] | Not Active | Not Active | – | – | Not Active | Not Active | Not Active | Not Active | Not Active | – | Not Active | – | – | – | – | –
COc1ccc2cc([C@H](C)C(=O)O)ccc2c1 [NAPROXEN] | Not Active | Not Active | – | – | Not Active | Not Active | Not Active | Not Active | Not Active | – | Not Active | – | – | – | – | –
COC(=O)C1=C(C)NC(C)=C(C(=O)OCC(C)C)C1c1ccccc1[N+](=O)[O-] (stereo not given) [NISOLDIPINE] | Not Active | Not Active | – | – | Not Active | Not Active | Not Active | Not Active | Not Active | – | Not Active | – | – | – | – | –
CCn1cc(C(=O)O)c(=O)c2cc(F)c(N3CCN(C)CC3)cc21 [PEFLOXACIN] | Not Active | Not Active | – | – | Not Active | Not Active | Not Active | Not Active | Not Active | – | Not Active | – | – | – | – | –
CCC1=C[C@@H]2CN(C1)Cc1c([nH]c3ccccc13)[C@@](C(=O)OC)(c1cc3c(cc1OC)N(C)[C@H]1[C@@](O)(C(=O)OC)[C@H](OC(C)=O)[C@]4(CC)C=CCN5CC[C@]31[C@@H]54)C2 [VINORELBINE] | Not Active | Not Active | – | – | Not Active | Not Active | Not Active | Not Active | Not Active | – | Not Active | – | – | – | – | –
CADMIUM DICHLORIDE | Not Active | Not Active | Not Active | Not Active | Not Active | Not Active | Not Active | Not Active | – | – | Not Active | – | – | Not Active | Not Active | Not Active
